HELM strings list units from the 5' end as sugar, base in round brackets, then linkage (d deoxyribose, r ribose, m 2'-O-methyl, p phosphodiester). Strings are as the collection lists them; they lack the last nucleoside at the 3' end of the tested compound. [moe] = 2'-O-(2-methoxyethyl) (MOE); [sp] = phosphorothioate linkage; [m5C] = 5-methylcytosine
biological target: SCN2A; experiment: mouse, dose not given; conditions: ASO

“RNA1{[moe](G)[sp].[moe](T)p.[moe](T)p.[moe]([m5C])p.[moe]([m5C])p.d(A)[sp].d(T)[sp].d(T)[sp].d(A)[sp].d(A)[sp].d(A)[sp].d([m5C])[sp].d(T)[sp].d(A)[sp].d(A)[sp].[moe](G)p.[moe](G)p.[moe]([m5C])[sp].[moe](T)}$$$$ (last 3' nucleoside missing)” and “RNA1{[moe](G)[sp].[moe](T)p.[moe]([m5C])p.[moe](T)p.[moe]([m5C])p.[moe](T)p.d(T)[sp].d(T)[sp].d([m5C])[sp].d(T)[sp].d(T)[sp].d(A)[sp].d(T)[sp].d(T)[sp].d(T)[sp].d([m5C])[sp].[moe](T)p.[moe](G)[sp].[moe](T)}$$$$ (last 3' nucleoside missing)” are the same in 3 h FOB score: 1 score 0-7 for the first, 1 score 0-7 for the second.

First: RNA1{[moe](G)[sp].[moe](T)p.[moe]([m5C])p.[moe](T)p.[moe]([m5C])p.d(T)[sp].d(T)[sp].d(T)[sp].d([m5C])[sp].d(T)[sp].d(T)[sp].d(A)[sp].d(T)[sp].d(T)[sp].d(T)[sp].[moe]([m5C])p.[moe](T)p.[moe](G)[sp].[moe](T)}$$$$ (last 3' nucleoside missing)
Second: RNA1{[moe](G)[sp].[moe](T)p.[moe]([m5C])p.[moe](T)p.d([m5C])[sp].d(T)[sp].d(T)[sp].d(T)[sp].d([m5C])[sp].d(T)[sp].d(T)[sp].d(A)[sp].d(T)[sp].d(T)[sp].[moe](T)p.[moe]([m5C])p.[moe](T)p.[moe](G)[sp].[moe](T)}$$$$ (last 3' nucleoside missing)
The 3 h FOB score of the first is higher: 1 score 0-7 for the first, 0 score 0-7 for the second.

“RNA1{[moe](G)[sp].[moe]([m5C])p.[moe](A)p.[moe](T)[sp].d(G)[sp].d(T)[sp].d(A)[sp].d(A)[sp].d([m5C])[sp].d([m5C])[sp].d(T)[sp].d(T)[sp].[moe](T)p.[moe](A)p.[moe](T)p.[moe](A)[sp].[moe]([m5C])}$$$$ (last 3' nucleoside missing)” and “RNA1{[moe](G)[sp].[moe]([m5C])p.[moe](A)p.[moe](T)p.[moe](A)p.[moe](A)p.d(T)[sp].d([m5C])[sp].d([m5C])[sp].d([m5C])[sp].d(A)[sp].d(T)[sp].d(T)[sp].d(A)[sp].d(T)[sp].d(A)[sp].[moe]([m5C])p.[moe](A)[sp].[moe](A)}$$$$ (last 3' nucleoside missing)” are the same in 3 h FOB score: 0 score 0-7 for the first, 0 score 0-7 for the second.

Compared with “RNA1{[moe](G)[sp].[moe]([m5C])p.[moe](A)p.[moe](T)p.[moe](A)p.d(A)[sp].d(T)[sp].d([m5C])[sp].d([m5C])[sp].d([m5C])[sp].d(A)[sp].d(T)[sp].d(T)[sp].d(A)[sp].d(T)[sp].[moe](A)p.[moe]([m5C])p.[moe](A)[sp].[moe](A)}$$$$ (last 3' nucleoside missing)”, “RNA1{[moe](G)[sp].[moe]([m5C])p.[moe](A)p.[moe](T)p.[moe](G)[sp].d(T)[sp].d(A)[sp].d(A)[sp].d([m5C])[sp].d([m5C])[sp].d(T)[sp].d(T)[sp].d(T)[sp].[moe](A)p.[moe](T)p.[moe](A)[sp].[moe]([m5C])}$$$$ (last 3' nucleoside missing)” is lower in 3 h FOB score: 0.5 score 0-7 for the first, 0 score 0-7 for the second.

Going from “RNA1{[moe](G)[sp].[moe]([m5C])p.[moe](A)p.[moe](T)p.[moe](G)p.[moe](T)[sp].d(A)[sp].d(A)[sp].d([m5C])[sp].d([m5C])[sp].d(T)[sp].d(T)[sp].d(T)[sp].d(A)[sp].[moe](T)p.[moe](A)[sp].[moe]([m5C])}$$$$ (last 3' nucleoside missing)” to “RNA1{[moe](G)[sp].[moe]([m5C])p.[moe](A)p.[moe](T)p.[moe](G)p.[moe](T)p.d(A)[sp].d(A)[sp].d([m5C])[sp].d([m5C])[sp].d(T)[sp].d(T)[sp].d(T)[sp].d(A)[sp].d(T)[sp].d(A)[sp].[moe]([m5C])p.[moe](A)[sp].[moe](T)}$$$$ (last 3' nucleoside missing)”, the 3 h FOB score falls from 0.33 score 0-7 to 0 score 0-7.

Compared with “RNA1{[moe](G)[sp].[moe]([m5C])p.[moe](A)p.[moe](T)p.[moe](G)p.[moe](T)p.d(T)[sp].d(T)[sp].d(A)[sp].d(T)[sp].d([m5C])[sp].d(T)[sp].d(T)[sp].d(A)[sp].d(G)[sp].d(T)[sp].[moe](T)p.[moe]([m5C])[sp].[moe](T)}$$$$ (last 3' nucleoside missing)”, “RNA1{[moe](G)[sp].[moe]([m5C])p.[moe](A)p.[moe](T)p.[moe](G)p.d(T)[sp].d(A)[sp].d(A)[sp].d([m5C])[sp].d([m5C])[sp].d(T)[sp].d(T)[sp].d(T)[sp].d(A)[sp].d(T)[sp].[moe](A)p.[moe]([m5C])p.[moe](A)[sp].[moe](T)}$$$$ (last 3' nucleoside missing)” is lower in 3 h FOB score: 1.67 score 0-7 for the first, 0 score 0-7 for the second.

Going from “RNA1{[moe](G)[sp].[moe]([m5C])p.[moe](A)p.[moe](T)p.[moe](G)p.d(T)[sp].d(T)[sp].d(T)[sp].d(A)[sp].d(T)[sp].d([m5C])[sp].d(T)[sp].d(T)[sp].d(A)[sp].d(G)[sp].[moe](T)p.[moe](T)p.[moe]([m5C])[sp].[moe](T)}$$$$ (last 3' nucleoside missing)” to “RNA1{[moe](G)[sp].[moe]([m5C])p.[moe](A)p.[moe](T)p.d(A)[sp].d(A)[sp].d(T)[sp].d([m5C])[sp].d([m5C])[sp].d([m5C])[sp].d(A)[sp].d(T)[sp].d(T)[sp].d(A)[sp].[moe](T)p.[moe](A)p.[moe]([m5C])p.[moe](A)[sp].[moe](A)}$$$$ (last 3' nucleoside missing)”, the 3 h FOB score falls from 1 score 0-7 to 0 score 0-7.

Going from “RNA1{[moe](G)[sp].[moe]([m5C])p.[moe](A)p.[moe](T)p.d(A)[sp].d(T)[sp].d(T)[sp].d([m5C])[sp].d(T)[sp].d(A)[sp].d(A)[sp].d([m5C])[sp].d(A)[sp].d(T)[sp].[moe](G)p.[moe](G)p.[moe](T)p.[moe]([m5C])[sp].[moe](T)}$$$$ (last 3' nucleoside missing)” to “RNA1{[moe](G)[sp].[moe]([m5C])p.[moe](A)p.[moe](T)p.d(G)[sp].d(T)[sp].d(A)[sp].d(A)[sp].d([m5C])[sp].d([m5C])[sp].d(T)[sp].d(T)[sp].d(T)[sp].d(A)[sp].[moe](T)p.[moe](A)p.[moe]([m5C])p.[moe](A)[sp].[moe](T)}$$$$ (last 3' nucleoside missing)”, the 3 h FOB score falls from 1.67 score 0-7 to 0 score 0-7.

“RNA1{[moe](G)[sp].[moe]([m5C])p.[moe](A)p.[moe](T)p.d(G)[sp].d(T)[sp].d(T)[sp].d(T)[sp].d(A)[sp].d(T)[sp].d([m5C])[sp].d(T)[sp].d(T)[sp].d(A)[sp].[moe](G)p.[moe](T)p.[moe](T)p.[moe]([m5C])[sp].[moe](T)}$$$$ (last 3' nucleoside missing)” and “RNA1{[moe](G)[sp].[moe]([m5C])p.[moe](T)p.[moe](T)p.[moe](T)p.d([m5C])[sp].d([m5C])[sp].d([m5C])[sp].d(T)[sp].d(T)[sp].d(T)[sp].d(A)[sp].d(T)[sp].d(T)[sp].d([m5C])[sp].[moe](A)p.[moe](A)p.[moe](T)[sp].[moe](A)}$$$$ (last 3' nucleoside missing)” are the same in 3 h FOB score: 0 score 0-7 for the first, 0 score 0-7 for the second.

First: RNA1{[moe](G)[sp].[moe]([m5C])p.[moe]([m5C])p.[moe](A)p.d(T)[sp].d(T)[sp].d(T)[sp].d([m5C])[sp].d(T)[sp].d(A)[sp].d(T)[sp].d(A)[sp].d(A)[sp].d([m5C])[sp].[moe](T)p.[moe]([m5C])p.[moe](A)p.[moe](G)[sp].[moe]([m5C])}$$$$ (last 3' nucleoside missing)
Second: RNA1{[moe](G)[sp].[moe]([m5C])p.[moe]([m5C])p.[moe](T)p.[moe](A)p.d([m5C])[sp].d(T)[sp].d(T)[sp].d([m5C])[sp].d([m5C])[sp].d(T)[sp].d(T)[sp].d([m5C])[sp].d([m5C])[sp].d(A)[sp].[moe](A)p.[moe](G)p.[moe](G)[sp].[moe](A)}$$$$ (last 3' nucleoside missing)
The 3 h FOB score of the first is lower: 0 score 0-7 for the first, 0.33 score 0-7 for the second.

“RNA1{[moe](T)[sp].[moe](A)p.[moe](A)p.[moe](T)p.[moe]([m5C])p.[moe](A)p.d([m5C])[sp].d(T)[sp].d(T)[sp].d(T)[sp].d([m5C])[sp].d(A)[sp].d(T)[sp].d([m5C])[sp].d([m5C])[sp].d(A)[sp].[moe]([m5C])p.[moe](G)[sp].[moe](A)}$$$$ (last 3' nucleoside missing)” and “RNA1{[moe](T)[sp].[moe](A)p.[moe](A)p.[moe](T)p.[moe]([m5C])p.d(A)[sp].d([m5C])[sp].d(T)[sp].d(T)[sp].d(T)[sp].d([m5C])[sp].d(A)[sp].d(T)[sp].d([m5C])[sp].d([m5C])[sp].[moe](A)p.[moe]([m5C])p.[moe](G)[sp].[moe](A)}$$$$ (last 3' nucleoside missing)” are the same in 3 h FOB score: 0 score 0-7 for the first, 0 score 0-7 for the second.

Going from “RNA1{[moe](T)[sp].[moe](A)p.[moe](A)p.[moe](T)p.d([m5C])[sp].d(A)[sp].d([m5C])[sp].d(T)[sp].d(T)[sp].d(T)[sp].d([m5C])[sp].d(A)[sp].d(T)[sp].d([m5C])[sp].[moe]([m5C])p.[moe](A)p.[moe]([m5C])p.[moe](G)[sp].[moe](A)}$$$$ (last 3' nucleoside missing)” to “RNA1{[moe](T)[sp].[moe](A)p.[moe](T)p.[moe](T)p.[moe](T)p.d(T)[sp].d(T)[sp].d([m5C])[sp].d(T)[sp].d(A)[sp].d([m5C])[sp].d(A)[sp].d([m5C])[sp].d(T)[sp].d(G)[sp].[moe]([m5C])p.[moe](T)p.[moe](G)[sp].[moe]([m5C])}$$$$ (last 3' nucleoside missing)”, the 3 h FOB score rises from 0 score 0-7 to 2.67 score 0-7.

Compared with “RNA1{[moe](T)[sp].[moe](A)p.[moe](T)p.[moe](T)p.d(T)[sp].d(T)[sp].d(A)[sp].d(T)[sp].d(A)[sp].d(A)[sp].d(A)[sp].d(T)[sp].d(G)[sp].d([m5C])[sp].[moe]([m5C])p.[moe](G)p.[moe](A)p.[moe]([m5C])[sp].[moe](T)}$$$$ (last 3' nucleoside missing)”, “RNA1{[moe](T)[sp].[moe](A)p.[moe](T)p.[moe](T)p.d(T)[sp].d(T)[sp].d(T)[sp].d([m5C])[sp].d(T)[sp].d(A)[sp].d([m5C])[sp].d(A)[sp].d([m5C])[sp].d(T)[sp].[moe](G)p.[moe]([m5C])p.[moe](T)p.[moe](G)[sp].[moe]([m5C])}$$$$ (last 3' nucleoside missing)” is lower in 3 h FOB score: 2.67 score 0-7 for the first, 0 score 0-7 for the second.

From the OligoGym collection
